This test relates to U2OS_Bim cells. Briefly: Apoptosis inhibition assay (Bim-induced apoptosis, cell viability by ATP level). The test is classed as cell-based. As to conditions: U2OS_Bim cells; means of duplicates; numbering of Tables 4a/4b; read-out: EC50. A digest of the protocol:
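Apoptosis was triggered by doxycycline (0.1 μg/mL) induction of Bim, one hour after compound addition to U2OS_Bim cells. Survival was measured after 24 h from cellular ATP (CellTiter-Glo), relative to DMSO, with zVAD at 20 μM as rescue control. Data are duplicate means, some estimated from preliminary results.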

`CCOc1cccc(Cn2cc(-c3cc(C)nc([S+]([O-])CCC(OCc4ccc(F)cc4F)c4ccccc4)n3)cc(F)c2=O)c1` (centres unmarked) [Compound 310, 5-(2-((3-((2,4-difluorobenzyl)oxy)-3-phenylpropyl)sulfinyl)-6-methylpyrimidin-4-yl)-1-(3-ethoxybenzyl)-3-fluoropyridin-2 (1H)-one]: the EC50 (usually the concentration needed to bring the measured effect to its halfway point) was in the range of 1000 to 10000 nM.
For `CCOc1cccc(Cn2cc(-c3cc(C)nc(S(=O)(=O)CCC(OCc4ccc(F)cc4F)c4ccccc4)n3)cc(F)c2=O)c1` (centres unmarked) [Compound 311, 5-(2-((3-((2,4-difluorobenzyl)oxy)-3-phenylpropyl)sulfonyl)-6-methylpyrimidin-4-yl)-1-(3-ethoxybenzyl)-3-fluoropyridin-2 (1H)-one] the value was 1 to 1000 nM.
Turning to `Cc1cc(-c2cc(F)c(=O)n(CC3CCNCC3)c2)nc(S(=O)(=O)CCC(OCc2ccc(F)cc2F)c2ccccc2)n1` (centres unmarked) [Compound 312, 5-(2-(3-(2,4-difluorobenzyloxy)-3-phenylpropylsulfonyl)-6-methylpyrimidin-4-yl)-3-fluoro-1-(piperidin-4-ylmethyl)pyridin-2 (1H)-one], the EC50 was under 100000 nM.
As to `Cc1cc(-c2cc(F)c(=O)n(CC3CCOCC3)c2)nc([S+]([O-])CCC(OCc2ccc(F)cc2F)c2ccccc2)n1` (centres unmarked) [Compound 313, 5-(2-(3-(2,4-difluorobenzyloxy)-3-phenylpropylsulfinyl)-6-methylpyrimidin-4-yl)-3-fluoro-1-((tetrahydro-2H-pyran-4-yl)methyl)pyridin-2 (1H)-one], the EC50 was 1000 to 10000 nM.
Regarding `Cc1cc(-c2cc(F)c(=O)n(CC3CCOCC3)c2)nc(S(=O)(=O)CCC(OCc2ccc(F)cc2F)c2ccccc2)n1` (centres unmarked) [Compound 314, 5-(2-(3-(2,4-difluorobenzyloxy)-3-phenylpropylsulfonyl)-6-methylpyrimidin-4-yl)-3-fluoro-1-((tetrahydro-2H-pyran-4-yl)methyl)pyridin-2 (1H)-one], the EC50 lay in the range of 1 to 1000 nM.
With `Cc1cc(-c2cc(F)c(=O)n(Cc3ccc(Cl)c(Cl)c3)c2)nc([S+]([O-])CCC(OCc2ccc(F)cc2F)c2ccccc2)n1` (centres unmarked) [Compound 315, 1-(3,4-dichlorobenzyl)-5-(2-(3-(2,4-difluorobenzyloxy)-3-phenylpropylsulfinyl)-6-methylpyrimidin-4-yl)-3-fluoropyridin-2 (1H)-one], the half-maximal effective concentration (EC50) is under 100000 nM.
For `Cc1cc(-c2cc(F)c(=O)n(Cc3ccc(Cl)c(Cl)c3)c2)nc(S(=O)(=O)CCC(OCc2ccc(F)cc2F)c2ccccc2)n1` (centres unmarked) [Compound 316, 1-(3,4-dichlorobenzyl)-5-(2-(3-(2,4-difluorobenzyloxy)-3-phenylpropylsulfonyl)-6-methylpyrimidin-4-yl)-3-fluoropyridin-2 (1H)-one] the value was 1000 to 10000 nM; for `Cc1cc(-c2cc(F)c(=O)n(Cc3ccc4c(c3)OCO4)c2)nc(S(=O)(=O)CCC(OCc2ccc(F)cc2F)c2ccccc2)n1` (centres unmarked) [Compound 317, 1-(benzo[d][1,3]dioxol-5-ylmethyl)-5-(2-((3-((2,4-difluorobenzyl)oxy)-3-phenylpropyl)sulfonyl)-6-methylpyrimidin-4-yl)-3-fluoropyridin-2 (1H)-one], 1 to 1000 nM; for `Cc1cc(-c2cc(F)c(=O)n(Cc3ccc4c(c3)OCO4)c2)nc(S(=O)(=O)CCC(OCc2ccccc2F)c2ccccc2)n1` (centres unmarked) [Compound 318, 1-(benzo[d][1,3]dioxol-5-ylmethyl)-3-fluoro-5-(2-(3-(2-fluorobenzyloxy)-3-phenylpropylsulfonyl)-6-methylpyrimidin-4-yl)pyridin-2 (1H)-one], 1 to 1000 nM.
The result for `Cc1cc(-c2cc(F)c(=O)n(Cc3ccc4nsnc4c3)c2)nc(S(=O)(=O)CCC(OCc2ccccc2F)c2ccccc2)n1` (centres unmarked) [Compound 319, 1-(benzo[c][1,2,5]thiadiazol-5-ylmethyl)-3-fluoro-5-(2-(3-(2-fluorobenzyloxy)-3-phenylpropylsulfonyl)-6-methylpyrimidin-4-yl)pyridin-2 (1H)-one] reads 1 to 1000 nM; that for `Cc1cc(-c2cc(F)c(=O)n(Cc3cccc4c3OCO4)c2)nc(S(=O)(=O)CCC(OCc2ccccc2F)c2ccccc2)n1` (centres unmarked) [Compound 320, 1-(benzo[d][1,3]dioxol-4-ylmethyl)-3-fluoro-5-(2-(3-(2-fluorobenzyloxy)-3-phenylpropylsulfonyl)-6-methylpyrimidin-4-yl)pyridin-2 (1H)-one], 1 to 1000 nM; that for `COc1cc(Cn2cc(-c3cc(C)nc(S(=O)(=O)CCC(OCc4ccccc4F)c4ccccc4)n3)cc(F)c2=O)ccn1` (centres unmarked) [Compound 321, 3-fluoro-5-(2-(3-(2-fluorobenzyloxy)-3-phenylpropylsulfonyl)-6-methylpyrimidin-4-yl)-1-((2-methoxypyridin-4-yl)methyl)pyridin-2 (1H)-one], 1 to 1000 nM.
For `Cc1cc(-c2cc(F)c(=O)n(Cc3ccc4nc[nH]c4c3)c2)nc(S(=O)(=O)CCC(OCc2ccccc2F)c2ccccc2)n1` (centres unmarked) [Compound 322, 1-((1H-benzo[d]imidazol-6-yl)methyl)-3-fluoro-5-(2-(3-(2-fluorobenzyloxy)-3-phenylpropylsulfonyl)-6-methylpyrimidin-4-yl)pyridin-2 (1H)-one], the EC50 was in the range of 1 to 1000 nM.
In the case of `Cc1cc(-c2cc(F)c(=O)n(Cc3ccc4c(c3)no[n+]4[O-])c2)nc(S(=O)(=O)CCC(OCc2ccccc2F)c2ccccc2)n1` (centres unmarked) [Compound 323], the EC50 is 1 to 1000 nM.
The result for `COc1ccc(Cn2cc(-c3cc(C)nc(S(C)(=O)=O)n3)cc(F)c2=O)cc1OC` [Compound 324, 1-(3,4-dimethoxybenzyl)-3-fluoro-5-(6-methyl-2-(methylsulfonyl)pyrimidin-4-yl)pyridin-2 (1H)-one] reads 1000 to 10000 nM.
For the compound `Cc1cc(-c2c[nH]c(=O)c(F)c2)nc(S(=O)(=O)CCC(OCc2ccccc2F)c2ccccc2)n1` (centres unmarked) [Compound 325, 3-fluoro-5-(2-(3-(2-fluorobenzyloxy)-3-phenylpropylsulfonyl)-6-methylpyrimidin-4-yl)pyridin-2 (1H)-one], the 50% effective concentration (EC50) fell in the range of 1000 to 10000 nM.
For `Cc1cc(-c2cc(F)c(=O)n(Cc3ccc4scnc4c3)c2)nc(S(=O)(=O)CCC(OCc2ccccc2F)c2ccccc2)n1` (centres unmarked) [Compound 326, 1-(benzo[d]thiazol-5-ylmethyl)-3-fluoro-5-(2-(3-(2-fluorobenzyloxy)-3-phenylpropylsulfonyl)-6-methylpyrimidin-4-yl)pyridin-2 (1H)-one] the value was 1 to 1000 nM; for `Cc1cc(-c2cc(F)c(=O)n(Cc3ccc4c(cnn4C)c3)c2)nc(S(=O)(=O)CCC(OCc2ccccc2F)c2ccccc2)n1` (centres unmarked) [Compound 327, 3-fluoro-5-(2-(3-(2-fluorobenzyloxy)-3-phenylpropylsulfonyl)-6-methylpyrimidin-4-yl)-1-((1-methyl-1H-indazol-5-yl)methyl)pyridin-2 (1H)-one], 1 to 1000 nM; for `Cc1cc(-c2cnc(OCc3ccc4c(cnn4C)c3)c(F)c2)nc(S(=O)(=O)CCC(OCc2ccccc2F)c2ccccc2)n1` (centres unmarked) [Compound 328, 5-((3-fluoro-5-(2-(3-(2-fluorobenzyloxy)-3-phenylpropylsulfonyl)-6-methylpyrimidin-4-yl)pyridin-2-yloxy)methyl)-1-methyl-1H-indazole], under 100000 nM.
Turning to `Cc1cc(-c2cc(F)c(=O)n(Cc3ccc4ocnc4c3)c2)nc(S(=O)(=O)CCC(OCc2ccccc2F)c2ccccc2)n1` (centres unmarked) [Compound 329, 1-(benzo[d]oxazol-5-ylmethyl)-3-fluoro-5-(2-((3-((2-fluorobenzyl)oxy)-3-phenylpropyl)sulfonyl)-6-methylpyrimidin-4-yl)pyridin-2 (1H)-one], the EC50 was in the range of 1 to 1000 nM.

These data come from patent US11725000B2, “Apoptosis inhibitors” (National Institute of Biological Sciences, Beijing, priority 2017, dated 2023).
